Marks after values point to notes of the source that are not given here.
Tests used:
[1] = Dynamic surface tension of aqueous solutions, maximum bubble pressure method; type: physicochemical; settings: for γ at 0.1 wt %, 0.1 b/s / γ at 0.1 wt %, 1 b/s / γ at 0.1 wt %, 6 b/s / γ at 0.1 wt %, 20 b/s: 0.1 wt % in distilled water
Text: Dynamic surface tension data were obtained for the soluble portion of these samples using the maximum bubble pressure method at bubble rates from 0.1 bubbles/sec (b/s) to 20 b/s.
The relative efficiency of surface tension reduction can be obtained by comparing surface tension reduction of solutions containing the same amount of different surfactants. Such data are given for 0.1 wt % solutions of the foam control agents at 0.1, 1, 6 and 20 bubbles/second (b/s). The limiting surface tensions at 0.1, 1, 6 and 20 b/s represent the lowest surface tensions in water which can be achieved at the given surface creation rates for a given surfactant regardless of the amount of surfactant used and is used to evaluate the effectiveness of a surfactant. In most cases the limiting surface tension was taken at 1.0 wt % since the foam control agent was insoluble at this concentration. In the case where the foam control agent was soluble at 1.0 wt %, the limiting surface tension was taken at 5.0 wt % (where the samples were insoluble). These values give information about the relative ability to a surfactant to reduce surface defects under near-equilibrium conditions (0.1 b/s) through very dynamic conditions (20 b/s).

[2] = Foam test of DOSS solutions with added foam control agent (based on ASTM D 1173-53); type: physicochemical; settings: for Foam height after 1 min / Foam height after 10 min / Initial foam height: 0.1 wt % foam control agent added to 0.1 wt % DOSS in water; for Initial foam height: ambient temperature
Text: Dioctyl sodium sulfosuccinate (DOSS) is a commonly used surfactant in waterborne compositions. DOSS is capable of forming stable foams when dissolved in water. The foam control characteristics of various foam control agents may be assessed by measuring the foam generated by a 0.1 wt % aqueous solution of DOSS and comparing this to the foam generated after the addition of foam control agent to a 0.1 wt % DOSS solution. The DOSS utilized in these measurements was an Aerosol OT 75% surfactant obtained from Cytec Industries. The foaming and foam stability of DOSS were measured using a procedure based upon ASTM D 1173-53 at ambient temperature, typically 23° C.
In these tests, an aqueous solution of DOSS or the filtrate from the DOSS/foam control agent mixture is added from an elevated foam pipette to a foam receiver containing the same solution. The foam height is measured at the completion of the addition (“Initial Foam Height”) and the time required for the foam to dissipate at the air-liquid interface (“Time to 0 Foam”) is recorded. This test provides a comparison between the foaming characteristics of various aqueous compositions. The results for the foam control agents prepared in Examples 1-28 are reported in Table 1 along with comparative data for a 0.1 wt % solution of DOSS with no added foam control agent (Example 29).

[3] = saturated solution made using 1.0 wt % in water
[4] = saturated solution made using 5.0 wt % in water

| Structure (SMILES) | γ at 0.1 wt %, 0.1 b/s [1] [dyne/cm] | γ at 0.1 wt %, 1 b/s [1] [dyne/cm] | γ at 0.1 wt %, 6 b/s [1] [dyne/cm] | γ at 0.1 wt %, 20 b/s [1] [dyne/cm] | γ limiting, 0.1 b/s [1, 3] [dyne/cm] | γ limiting, 1 b/s [1, 3] [dyne/cm] | γ limiting, 6 b/s [1, 3] [dyne/cm] | γ limiting, 20 b/s [1, 3] [dyne/cm] | Foam height after 1 min [2] [cm] | Foam height after 10 min [2] [cm] | Initial foam height [2] [cm] | Effect on foaming of DOSS solution (in words) ([2]; added to the 0.1 wt % aqueous DOSS solution) | γ limiting, 0.1 b/s [1, 4] [dyne/cm] | γ limiting, 1 b/s [1, 4] [dyne/cm] | γ limiting, 6 b/s [1, 4] [dyne/cm] | γ limiting, 20 b/s [1, 4] |
| --- | --- | --- | --- | --- | --- | --- | --- | --- | --- | --- | --- | --- | --- | --- | --- | --- |
| CCCCOCC(O)CNCCCOCCOCCOCCCN(CC(O)COCCCC)CC(O)COCCCC (stereo not drawn) [DAPDEG/3 BGE] | 38.0 | 39.4 | 42.1 | 47.6 | 33.5 | 38.7 | 34.3 | 36.1 | 0.9 | 0.1 | 1.9 |  |  |  |  |  |
| CC(C)COCC(O)CNCCN(CC(O)COCC(C)C)CC(O)COCC(C)C (stereo not drawn) [EDA/3 IBGE] | 38.9 | 42.5 | 44.1 | 50.3 | 33.3 | 34.3 | 35.0 | 35.6 | 0.8 | 0.7 | 0.9 |  |  |  |  |  |
| CCCCOCC(O)CNCCN (racemic) [EDA/1 BGE] | 46.1 | 49.4 | 53.4 | 59.9 | 36.7 | 37.2 | 38.1 | 39.8 | 2.0 | 1.4 | 3.5 | increase in foaming |  |  |  |  |
| CCCCOCC(O)CN(CC(O)COCCCC)C1CCC(CC2CCC(N(CC(O)COCCCC)CC(O)COCCCC)CC2)CC1 (stereo not drawn) [PACM/4 BGE] | 70.6 | 71.8 | 72.0 | 72.4 | 58.5 | 68.5 | 70.5 | 71.0 | 2.1 | 1.8 | 2.7 |  |  |  |  |  |
| CCCCOCC(O)CNCCCCCCN(CC(O)COCCCC)CC(O)COCCCC (stereo not drawn) [HDA/3 BGE] | 40.3 | 43.1 | 47.5 | 55.4 | 37.9 | 39.1 | 40.7 | 44.4 | 0 | 0 | 1.2 |  |  |  |  |  |
| CC(C)COCC(O)CN(CCN(CC(O)COCC(C)C)CC(O)COCC(C)C)CC(O)COCC(C)C (stereo not drawn) [EDA/4 IBGE] | 37.6 | 41.7 | 51.4 | 65.5 | 34.8 | 36.7 | 40.3 | 49.4 | 1.5 | 1.2 | 2.0 |  |  |  |  |  |
| CCCCC(CC)COCC(O)CN(CCN(CC(O)COCC(CC)CCCC)CC(O)COCC(CC)CCCC)CC(O)COCC(CC)CCCC (stereo not drawn) [EDA/4 EHGE] | 60.7 | 67.9 | 71.0 | 71.7 | 44.4 | 50.6 | 51.0 | 52.1 | 2.5 | 2.1 | 3.0 |  |  |  |  |  |
| CCCCC(CC)COCC(O)CNCCN(CC(O)COCC(CC)CCCC)CC(O)COCC(CC)CCCC (stereo not drawn) [EDA/3 EHGE] | 45.3 | 58.7 | 70.5 | 70.9 | 33.5 | 36.0 | 47.1 | 48.7 | 1.5 | 1.2 | 2.1 |  |  |  |  |  |
| CCCCOCC(O)CNCCCCCCN (racemic) [HDA/1 BGE] | 42.3 | 44.8 | 47.9 | 52.6 | 39.3 | 40.1 | 41.1 | 42.9 | 0.4 | 0 | 1.4 |  |  |  |  |  |
| CCCCOCC(O)CNCCN(CC(O)COCCCC)CC(O)COCCCC (stereo not drawn) [EDA/3 BGE] | 37.6 | 39.6 | 43.2 | 51.3 | 34.9 | 35.6 | 36.5 | 38.3 | 1.4 | 1.2 | 2.0 |  |  |  |  |  |
| CCCCC(CC)COCC(O)CNCCN (mixture of isomers) [EDA/1 EHGE] | 28.6 | 37.3 | 54.7 | 63.3 | 27.4 | 28.3 | 30.6 | 32.5 | 0.2 | 0 | 1.5 |  |  |  |  |  |
| CCCCOCC(O)CN(CCN(CC(O)COCCCC)CC(O)COCCCC)CC(O)COCCCC (stereo not drawn) [EDA/4 BGE] | 36.7 | 38.9 | 44.4 | 58.4 | 35.9 | 37.0 | 39.2 | 43.0 | 1.3 | 1.2 | 1.9 |  |  |  |  |  |
| CCCCOCC(O)CN(CCCC(C)CN(CC(O)COCCCC)CC(O)COCCCC)CC(O)COCCCC (stereo not drawn) [MPD/4 BGE] | 42.8 | 55.7 | 67.5 | 67.7 | 35.3 | 36.4 | 38.9 | 41.5 | 1.5 | 0.5 | 2.5 |  |  |  |  |  |
| CCCCOCC(O)CN(CCCCCCN(CC(O)COCCCC)CC(O)COCCCC)CC(O)COCCCC (stereo not drawn) [HDA/4 BGE] | 42.9 | 55.9 | 67.6 | 70.8 | 37.3 | 39.0 | 40.8 | 41.9 | 1.3 | 1.2 | 1.5 |  |  |  |  |  |
| CCCCOCC(O)CNC1CCC(CC2CCC(N(CC(O)COCCCC)CC(O)COCCCC)CC2)CC1 (stereo not drawn) [PACM/3 BGE] | 50.2 | 59.2 | 69.1 | 71.8 | 47.9 | 54.0 | 63.5 | 65.8 | 2.8 | 1.5 | 2.5 |  |  |  |  |  |
| CC(C)COCC(O)CNCCN (racemic) [EDA/1 IBGE] | 47.9 | 51.9 | 53.8 | 59.6 |  |  |  |  | 1.0 | 0.3 | 1.5 |  | 29.7 | 30.1 | 30.5 | 31.7^b dyne/cm |
